Measurements published in patent US11466006B2, “Dual selective PI3 delta and gamma kinase inhibitors” (Rhizen Pharmaceuticals SA, priority 2013, dated 2022).
pEC50, pIC50: −log10 of the molar value. Like-named read-outs stand apart in the source and are kept apart here.

Key:
[1] = molecular target: T1, Pi3K α (Homo sapiens, UniProt P42336); assay: Fluorescent (HTRF) determination of PI3 kinase enzyme activity, alpha isoform; type: biochemical; details: Table 1, HTRF
T1 construct: purchased Millipore (assay kit)
T1 sequence (P42336 whole entry, canonical isoform): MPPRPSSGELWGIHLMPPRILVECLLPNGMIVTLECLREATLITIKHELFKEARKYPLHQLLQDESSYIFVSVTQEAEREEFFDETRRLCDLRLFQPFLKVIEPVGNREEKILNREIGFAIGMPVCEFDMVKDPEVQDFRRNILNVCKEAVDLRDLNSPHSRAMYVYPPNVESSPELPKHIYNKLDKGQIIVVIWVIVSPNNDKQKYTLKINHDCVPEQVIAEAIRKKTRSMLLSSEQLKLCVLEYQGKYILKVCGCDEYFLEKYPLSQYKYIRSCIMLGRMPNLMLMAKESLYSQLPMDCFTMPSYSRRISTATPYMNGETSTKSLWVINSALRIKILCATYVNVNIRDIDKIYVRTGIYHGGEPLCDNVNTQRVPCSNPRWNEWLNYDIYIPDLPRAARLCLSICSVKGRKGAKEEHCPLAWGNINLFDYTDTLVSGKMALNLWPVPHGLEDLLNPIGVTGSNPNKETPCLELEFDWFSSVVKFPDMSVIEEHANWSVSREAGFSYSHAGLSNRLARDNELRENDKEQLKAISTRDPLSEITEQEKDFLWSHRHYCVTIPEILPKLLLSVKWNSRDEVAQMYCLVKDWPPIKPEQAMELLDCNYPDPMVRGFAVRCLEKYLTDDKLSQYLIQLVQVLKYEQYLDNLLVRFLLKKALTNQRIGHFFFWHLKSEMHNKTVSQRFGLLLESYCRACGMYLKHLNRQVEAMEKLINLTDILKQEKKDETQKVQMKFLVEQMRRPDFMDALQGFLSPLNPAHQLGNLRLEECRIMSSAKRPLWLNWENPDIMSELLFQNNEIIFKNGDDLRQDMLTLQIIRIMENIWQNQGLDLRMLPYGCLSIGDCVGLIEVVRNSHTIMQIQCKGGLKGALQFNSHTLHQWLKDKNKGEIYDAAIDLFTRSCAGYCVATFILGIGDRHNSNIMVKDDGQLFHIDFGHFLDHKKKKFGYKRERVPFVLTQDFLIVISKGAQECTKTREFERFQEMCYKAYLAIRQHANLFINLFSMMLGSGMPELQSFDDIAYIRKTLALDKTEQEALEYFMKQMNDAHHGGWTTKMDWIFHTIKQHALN
T1 sequence (P27986 whole entry partner, canonical isoform): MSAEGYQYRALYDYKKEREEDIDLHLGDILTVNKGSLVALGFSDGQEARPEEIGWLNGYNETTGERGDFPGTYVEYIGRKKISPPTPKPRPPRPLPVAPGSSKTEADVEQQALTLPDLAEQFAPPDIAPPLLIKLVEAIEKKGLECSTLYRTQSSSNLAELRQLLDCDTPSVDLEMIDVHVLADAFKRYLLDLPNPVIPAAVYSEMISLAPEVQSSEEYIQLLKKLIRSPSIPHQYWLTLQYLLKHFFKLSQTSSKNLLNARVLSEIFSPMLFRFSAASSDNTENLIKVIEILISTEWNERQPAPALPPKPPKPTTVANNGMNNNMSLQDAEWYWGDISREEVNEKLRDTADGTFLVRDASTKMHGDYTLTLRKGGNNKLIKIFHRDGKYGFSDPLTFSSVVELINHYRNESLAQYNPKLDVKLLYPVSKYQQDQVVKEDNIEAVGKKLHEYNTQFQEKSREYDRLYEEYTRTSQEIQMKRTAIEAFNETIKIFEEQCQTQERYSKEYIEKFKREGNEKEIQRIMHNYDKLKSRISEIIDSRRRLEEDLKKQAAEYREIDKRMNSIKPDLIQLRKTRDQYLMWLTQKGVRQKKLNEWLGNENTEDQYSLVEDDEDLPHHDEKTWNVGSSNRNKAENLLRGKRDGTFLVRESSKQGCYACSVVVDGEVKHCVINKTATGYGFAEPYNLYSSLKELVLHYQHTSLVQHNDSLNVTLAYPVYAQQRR
Text: Phosphoinositide 3 kinases (PI3K) belong to a class of lipid kinases that play a critical role in the regulation of several key cellular processes. The PI3K are capable of phosphorylating the 3-hydroxy position of phosphoinositols thereby generating second messengers involved in downstream signalling events. The homogenous time resolved fluorescence (HTRF) assay allows detection of 3,4,5-triphosphate (PIP3) formed as a result of phosphorylation of phosphotidylinositol 4,5-biphosphate (PIP2) by PI3K isoforms such as α, β, γ or δ.
PI3K isoform activity for α, β, γ or δ was determined using a PI3K human HTRF™ Assay Kit (Millipore, Billerica, Mass.) with modifications. All incubations were carried out at room temperature. Briefly, 0.5 μl of 40× inhibitor (in 100% DMSO) or 100% DMSO were added to each well of a 384-well white plate (Greiner Bio-One, Monroe, N.C.) containing 14.5 μl 1× reaction buffer /PIP2 (10 mM MgCl2, 5 mM DTT, 1.38 μM PIP2) mix with or without enzyme, followed by 5 μl/well of 400 μM ATP and incubated for an additional 30 minutes. Reaction was terminated by adding 5 μl/well stop solution (Millipore, Billerica, Mass.). […] HRTF ratio was measured on a microplate reader (BMG Labtech., Germany) at an excitation wavelength of 337 nm and emission wavelengths of 665 and 615 nm with an integration time of 400 msec counting delay of 50 msec.

[2] = tested on: T-lymphoma (MOLT-4, Jurkat, CCRF-CEM, Hut-78 & HuT-102) cells; assay: In vitro cell proliferation assay in leukemic cell lines (MTT); type: cell-based
Method: Growth inhibition assays were carried out using 10% FBS supplemented media. Cells were seeded at a concentration of 5000-20,000 cells/well in a 96-well plate. Test compounds at a concentration range from 0.01 to 10000 nM were added after 24 h. Growth was assessed using the 3-[4,5-dimethylthiazol-2-yl]-2,5-diphenyltetrazolium bromide (MTT) dye reduction test at 0 h (prior to the addition of the test compound) and 72 h after the addition of test compound. Absorbance was read on a Fluostar Optima (BMG Labtech, Germany) at a wave length of 450 nm. Data were analysed using GraphPad Prism and percent inhibition due to the test compound compared to the control was calculated accordingly.

[3] = molecular target: T2, PI3K alpha (Mus musculus, UniProt P42337); assay: PDGF induced Akt phosphorylation in 3T3 cells (PI3Kα selectivity); type: cell-based
T2 construct: endogenous in cells; host or cells: 3T3 fibroblasts
T2 sequence (P42337 whole entry): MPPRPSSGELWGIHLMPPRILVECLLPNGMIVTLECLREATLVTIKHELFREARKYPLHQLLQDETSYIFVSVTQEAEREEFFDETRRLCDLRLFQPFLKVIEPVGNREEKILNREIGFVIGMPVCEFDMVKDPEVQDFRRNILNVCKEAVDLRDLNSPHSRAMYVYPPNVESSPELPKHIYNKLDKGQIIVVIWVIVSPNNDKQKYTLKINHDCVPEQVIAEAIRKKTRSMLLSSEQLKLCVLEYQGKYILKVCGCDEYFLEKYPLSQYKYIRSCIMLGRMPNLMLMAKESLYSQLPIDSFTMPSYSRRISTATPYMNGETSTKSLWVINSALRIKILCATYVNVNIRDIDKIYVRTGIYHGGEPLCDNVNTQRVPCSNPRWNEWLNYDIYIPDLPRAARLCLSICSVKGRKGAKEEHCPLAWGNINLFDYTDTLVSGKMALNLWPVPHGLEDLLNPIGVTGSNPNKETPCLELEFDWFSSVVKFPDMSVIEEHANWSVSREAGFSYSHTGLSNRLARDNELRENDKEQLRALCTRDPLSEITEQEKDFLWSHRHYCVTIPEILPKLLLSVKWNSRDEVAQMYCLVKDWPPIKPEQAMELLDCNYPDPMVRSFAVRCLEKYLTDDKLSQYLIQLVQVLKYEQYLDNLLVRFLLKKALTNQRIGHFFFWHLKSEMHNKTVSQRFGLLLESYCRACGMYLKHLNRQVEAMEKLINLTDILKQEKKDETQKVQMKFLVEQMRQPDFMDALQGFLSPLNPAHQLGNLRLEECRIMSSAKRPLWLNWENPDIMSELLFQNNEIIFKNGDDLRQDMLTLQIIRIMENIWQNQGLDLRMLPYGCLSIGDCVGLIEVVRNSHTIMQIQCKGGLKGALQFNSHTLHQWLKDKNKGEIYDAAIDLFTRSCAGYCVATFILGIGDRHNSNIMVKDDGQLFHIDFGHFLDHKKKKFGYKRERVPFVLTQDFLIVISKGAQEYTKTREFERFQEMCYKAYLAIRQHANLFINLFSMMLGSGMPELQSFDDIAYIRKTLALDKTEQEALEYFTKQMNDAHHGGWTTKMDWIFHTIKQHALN
T2 sequence (P26450 whole entry partner): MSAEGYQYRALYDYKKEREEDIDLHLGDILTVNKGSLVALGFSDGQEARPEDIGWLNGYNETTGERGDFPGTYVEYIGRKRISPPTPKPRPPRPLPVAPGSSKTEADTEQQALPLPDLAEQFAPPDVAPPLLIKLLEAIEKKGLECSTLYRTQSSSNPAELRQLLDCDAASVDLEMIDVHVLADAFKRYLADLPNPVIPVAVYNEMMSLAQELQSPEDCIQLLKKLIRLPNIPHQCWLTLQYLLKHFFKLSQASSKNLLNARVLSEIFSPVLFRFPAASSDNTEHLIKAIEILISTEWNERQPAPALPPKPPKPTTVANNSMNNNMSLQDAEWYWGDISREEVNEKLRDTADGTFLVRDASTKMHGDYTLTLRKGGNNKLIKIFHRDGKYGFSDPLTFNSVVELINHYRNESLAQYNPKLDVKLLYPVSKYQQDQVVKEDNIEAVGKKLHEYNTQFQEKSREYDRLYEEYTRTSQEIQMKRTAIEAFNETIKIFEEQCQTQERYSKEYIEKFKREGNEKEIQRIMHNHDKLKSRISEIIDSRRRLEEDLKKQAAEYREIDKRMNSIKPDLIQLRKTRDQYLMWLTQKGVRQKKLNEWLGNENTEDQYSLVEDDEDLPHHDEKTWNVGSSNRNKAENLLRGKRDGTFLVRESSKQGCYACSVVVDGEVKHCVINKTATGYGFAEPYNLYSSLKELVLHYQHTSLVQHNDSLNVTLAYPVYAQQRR
Method: The objective of this study was to determine the effect of Compound A1 on PI3Kα kinase mediated AktS473 phosphorylation in PDGF induced 3T3 fibroblasts. • 3T3 cells were treated with desired concentrations of the test compound for 15 min. 1 ml of 2× PDGF was added such that the final concentration was 20 ng/ml and incubated for 10 min. • Media was discarded and washed with 1 ml of ice-cold 1× PBS. • 250 μl of cell lysis buffer was added and incubated on ice for 30 min. • Samples were centrifuged and supernatant was collected and stored at −80° C. until analysis. • Samples were analyzed by Western Blotting using pAKT (S473) as the primary and anti-rabbit IgG-HRP as a secondary antibody. • Intensity of the bands was determined using ImageJ 1.42q (NIH, USA) and normalized to Actin (loading control). Data was plotted using GraphPad Prism (Version 5.02).

[4] = tested on: caspase-3 activity; assay: Apoptosis in leukemic cell lines (in-situ Caspase 3 kit); type: cell-based; details: MOLT-4, Jurkat, CCRF-CEM, Hut-78 & HuT-102; 24 hrs
Method: Apoptosis in leukemic cells was determined using an in-situ Caspase 3 kit (Millipore, US) as outlined below: • Seed leukemic cells—at a density of 1×10^6 cells/well in a 6 well plate • Add test compound/DMSO at desired concentrations • Incubate the plate for 24 hrs at 37° C. in 5% CO2 incubator • Collect cells in a 2 ml centrifuge tube • Add 1.6 μL of freshly prepared 5× FLICA reagent and mix cells by slightly flicking the tubes • Incubate tubes for 1 hour at 37° C. under 5% CO2 • Add 2 ml of 1× wash buffer to each tube and mix • Centrifuge cells at <400× g for 5 minutes at room temperature. • Carefully remove and discard supernatant, and gently vortex cell pellet to disrupt any cell-to-cell clumping. • Resuspend cell pellet in 300 ul of 1× wash buffer • Place 100 μL of each cell suspension into each of two wells of a black microtiter plate. Avoid creation of bubbles. • Read […] of each microwell using an excitation wavelength of 490 nm and an emission wavelength of 520 nm • Percent increase in caspase-3 activity manifested by an increase in fluorescence compared to the control blank is to be calculated.

[5] = tested on: Primary CLL cells; assay: Anti-cancer activity in human CLL cells (MTS cytotoxicity); type: cell-based; details: CLL cell, 72 h, 3 days, read-out: median EC50, cytotoxicity in CLL cells
Method: Primary CLL cells were enriched using Rosette-Sep B cells from Stem Cell Technology, generally giving purity of >97% of B cells/CLL cells. Cells were seeded at 2.5×10^5 per well in a 96 well with either serum free medium (SFM) or SFM+10% heat-inactivated fetal bovine serum (volume 100 microliters) in the presence of desired concentrations of the test compound and cultured for 3 days at 37° C. in a carbon dioxide incubator. Cytotoxicity was determined using the MTS assay.

[6] = tested on: anti-human CD3/CD28 co-stimulated primary T-cells; assay: Cytokine assay in anti-human CD3 and CD28 co-stimulated primary T-cells (ELISA); type: cell-based; details: T-cell, anti-human CD3-CD28 induced, 24 h, eight independent experiments
Method: The objective of this study was to assess the inhibitory potential of Compound A1 on cytokines produced by anti-human CD3/CD28 co-stimulated primary T-cells.
• Plates were coated with 50 μl of anti-human CD3 at a concentration of 100 ng/ml either overnight at 4° C. or for 2 h at 37° C. After incubation, plates were washed twice with sterile PBS to remove unbound antibody. • Isolated human T-cells were re-suspended to 0.625×10^6 cells per ml in 1.5 ml tubes and 1 μl of drug dilution (1000×) was added. A DMSO blank and un-induced blank were maintained. • Cells were incubated with compound at room temperature for 30 min and then added to anti-human CD3 coated wells of a 96-well plate, 240 μl each. Anti-human CD28 was added immediately, 10 μl (25×) per well. • Plate was incubated at 37° C., 5% CO2 for 24 h. • Plates were centrifuged at 4000 rpm at room temperature, supernatant was collected and stored at −20° C. • Cytokines were determined using a commercial ELISA kit with absorbance read at 450 and 570 nm.

IC50 [1]: > 10000 nM
GI50 ([2]; MOLT-4, Jurkat, CCRF-CEM, Hut-78 & HuT-102, 72 h, MTT, read-out: GI50, reduction in T-lymphoma cell viability): 1000 to 5000 nM
inhibition of PDGF induced AktS473 phosphorylation ([3]; at 10 μM, 3T3 fibroblasts): No inhibition
pIC50 ([3]; read-out: Cellular IC50 PI3K alpha (PDGF induced pAKT in 3T3 fibroblasts)): < 5.00
pIC50 ([6]; read-out: IC50, IFNγ): 8.02
pIC50 ([6]; read-out: IC50, IL2): 7.69
pIC50 ([6]; read-out: IC50, TNFα): 7.62
SMILES: CC[C@H](Nc1ncnc2[nH]cnc12)c1oc2ccccc2c(=O)c1-c1cccc(F)c1 [Compound A1, (S)-2-(1-(9H-purin-6-ylamino)propyl)-3-(3-fluorophenyl)-4H-chromen-4-one]
apparent cytotoxicity ([2]; 72-h incubation period, up to 10 μM): did not display any apparent cytotoxicity
caspase-3 activity [4]: dose-dependent induction
pEC50 ([5]; 10% FBS media): > 6.15
pEC50 ([5]; serum-free medium): > 7.00
